Measurements: PubChem BioAssay (NCI)
Values joined by “and” are separate entries in the source; they are usually repeats but may differ in a detail not shown here. Equal entries are not always repeated.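 Protocol summary: plate cells (96-well), add compound at 5 concentrations, incubate 48 h, interpolate endpoints linearly. GI50 marks 50% less growth. TGI marks complete inhibition of growth.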

Assays:
Assay in all cases: inhibition of tumour cell growth, NCI panel, 48 h
[1] = tested on: SK-MEL-2 melanoma
[2] = tested on: SNB-75 CNS
[3] = tested on: SF-268 CNS
[4] = tested on: U251 CNS
[5] = tested on: CAKI-1 renal
[6] = tested on: NCI-H226 lung
[7] = tested on: EKVX NSCLC
[8] = tested on: NCI-H522 lung
[9] = tested on: COLO 205 colon
[10] = tested on: ACHN renal

`Cc1cc(C)c(P2C(=C(O[Si](C(C)C)(C(C)C)C(C)C)C(C)(C)C)C2(c2ccccc2)c2ccccc2)c(C)c1` (stereo not drawn) gave a TGI [1] greater than 100 µM, a TGI [2] greater than 100 µM and a TGI [3] greater than 100 µM. It also gave a TGI [4] greater than 100 µM, a TGI [5] greater than 100 µM and a TGI [6] greater than 100 µM. It also gave a TGI [7] greater than 100 µM, a TGI [8] greater than 100 µM and a TGI [9] greater than 100 µM. For the same compound, the TGI [10] was greater than 100 µM.

`Cc1cc(/C=C\c2ccc3ccccc3[n+]2C)c(O)c2ncccc12` showed a GI50 [1] of 3.03 µM, a TGI [1] greater than 100 µM and a GI50 [2] of 1.83 µM. The TGI [2] was 7.24 µM, the GI50 [3] was 0.486 µM and the TGI [3] was 8.63 µM. The GI50 [4] was 0.537 µM, the TGI [4] was greater than 100 µM and the GI50 [5] was 0.816 µM. For the same compound, the TGI [5] was 3.51 µM, the GI50 [6] was 1.24 µM and the TGI [6] was 3.17 µM. It also gave a GI50 [7] of 0.671 µM, a TGI [7] of 7.82 µM and a GI50 [8] of 1.05 µM. The TGI [8] was 5.02 µM, the GI50 [9] was 0.448 µM and the TGI [9] was 4.58 µM. The GI50 [10] was 0.584 µM and the TGI [10] was 2.15 µM.

`C/C=C\C(CC(=O)NCCc1cn(C(=O)OCc2ccccc2)c2ccccc12)CC(=O)OC` (stereo not drawn) gave a TGI [1] greater than 100 µM, a TGI [2] greater than 100 µM and a TGI [3] greater than 100 µM. For the same compound, the TGI [4] was greater than 100 µM, the TGI [5] was greater than 100 µM and the TGI [7] was greater than 100 µM. The TGI [8] was greater than 100 µM, the TGI [9] was greater than 100 µM and the TGI [10] was greater than 100 µM.

`CCNc1ccc2c(c1)Cc1ccccc1-2` gave a TGI [1] greater than 100 µM, a TGI [2] greater than 100 µM and a TGI [3] greater than 100 µM. The TGI [4] was greater than 100 µM, the TGI [5] was greater than 100 µM and the TGI [6] was greater than 100 µM. The TGI [7] was greater than 100 µM, the TGI [8] was greater than 100 µM and the TGI [9] was greater than 100 µM. The TGI [10] was greater than 100 µM.

`COc1nc(N(C)C)nc2c1n(C)c[n+]2C` was tested, and the TGI [1] was greater than 100 µM, the TGI [2] was greater than 100 µM and the TGI [3] was greater than 100 µM. The TGI [4] was greater than 100 µM, the TGI [5] was greater than 100 µM and the TGI [6] was greater than 100 µM. For the same compound, the TGI [7] was greater than 100 µM, the TGI [8] was greater than 100 µM and the TGI [9] was greater than 100 µM. For the same compound, the TGI [10] was greater than 100 µM.

In the case of `[Cl][Pt+2][Cl].[NH-]C1CCCCC1[NH-]` (stereo not drawn), the GI50 [1] is reported as 28.8 µM and 12.8 µM and 3.93 µM, the TGI [1] is reported as > 74.1 µM and > 100 µM and 29.5 µM and the GI50 [2] is reported as 25.1 µM and 19.6 µM and 3.41 µM. The TGI [2] was 97.6 µM and > 77.9 µM and 71 µM, the TGI [3] was 56.7 µM and > 100 µM and > 58.3 µM and the GI50 [4] was 21 µM and 9.15 µM and 13.2 µM. The TGI [4] was greater than 100 µM, the GI50 [5] was 1.44 µM and 3.52 µM and 0.769 µM and the TGI [5] was > 53 µM and > 100 µM and 18.1 µM. The TGI [7] was > 100 µM and 55.2 µM and 31.1 µM, the GI50 [8] was 3.31 µM and 5.88 µM and 1.49 µM and the TGI [8] was 20.7 µM and 38.2 µM and 12.4 µM. For the same compound, the TGI [9] was > 49.5 µM and > 70.4 µM and 13.6 µM.

Compound `O=C(CSCC(=O)N/N=C/c1cccs1)N/N=C/c1cccs1` has a TGI [1] greater than 100 µM, a TGI [2] greater than 100 µM and a TGI [3] greater than 100 µM. The TGI [4] was greater than 100 µM, the TGI [5] was greater than 100 µM and the TGI [6] was greater than 100 µM. The TGI [7] was greater than 100 µM, the TGI [8] was greater than 100 µM and the TGI [10] was greater than 100 µM.

For `COc1ccc2c(c1)C(N)=C(c1ccccc1)C2=O`, the TGI [1] was greater than 100 µM, the TGI [2] was 70 µM and the TGI [3] was greater than 100 µM. For the same compound, the TGI [4] was greater than 100 µM, the TGI [5] was greater than 100 µM and the TGI [6] was greater than 100 µM. The TGI [7] was greater than 100 µM, the TGI [8] was greater than 100 µM and the TGI [9] was greater than 100 µM. The TGI [10] was greater than 100 µM.

With `CN(C)/N=C/c1cn(C)c(=O)n(C)c1=O` the TGI [1] was greater than 100 µM, the TGI [2] was greater than 100 µM and the TGI [3] was greater than 100 µM. For the same compound, the TGI [4] was greater than 100 µM, the TGI [5] was greater than 100 µM and the TGI [6] was greater than 100 µM. For the same compound, the TGI [7] was greater than 100 µM, the TGI [8] was greater than 100 µM and the TGI [9] was greater than 100 µM. It also gave a TGI [10] greater than 100 µM.

With `Cc1ccncc1.F[B-](F)(F)F.[Pt+2].c1ccc(-c2cccc(-c3ccccn3)n2)nc1` the TGI [1] was greater than 100 µM, the TGI [2] was greater than 89.7 µM and the TGI [3] was greater than 60 µM. The TGI [4] was greater than 100 µM, the TGI [5] was greater than 62.1 µM and the GI50 [6] was 0.618 µM. It also gave a TGI [6] of 5.36 µM, a TGI [7] greater than 73.5 µM and a TGI [8] of 36.3 µM. It also gave a TGI [9] of 20.8 µM and a TGI [10] of 25.1 µM.

Compound `N/N=C1/C2CN3CCN(C2)CC1(c1ccc([N+](=O)[O-])cc1)C3` has a TGI [1] greater than 100 µM, a TGI [2] greater than 100 µM and a TGI [3] greater than 100 µM. It also gave a TGI [4] greater than 100 µM, a TGI [5] greater than 100 µM and a TGI [6] greater than 100 µM. The TGI [7] was greater than 100 µM, the TGI [8] was greater than 100 µM and the TGI [9] was greater than 100 µM. It also gave a TGI [10] greater than 100 µM.

Compound `COC1OC(Cc2nnc(C)o2)C(OCc2ccccc2)C(OCc2ccccc2)C1OCc1ccccc1` (stereo not drawn) has a TGI [1] of 29.2 µM, a TGI [2] greater than 100 µM and a TGI [3] of 46.3 µM. The TGI [4] was greater than 100 µM, the TGI [5] was greater than 100 µM and the TGI [6] was 95.6 µM. For the same compound, the TGI [7] was 35.5 µM, the TGI [8] was 52.7 µM and the TGI [9] was 44.1 µM. It also gave a TGI [10] of 76.8 µM.

Compound `Cc1ccc(C(=O)N/N=C(\N=Nc2cccc(Cl)c2)c2ccc(N(CCC#N)CCC#N)cc2C)cc1` has a TGI [1] greater than 100 µM, a TGI [2] greater than 100 µM and a TGI [4] greater than 100 µM. It also gave a TGI [5] greater than 100 µM, a TGI [6] greater than 100 µM and a TGI [7] greater than 100 µM. For the same compound, the TGI [8] was greater than 100 µM, the TGI [9] was greater than 100 µM and the TGI [10] was greater than 100 µM.

For `COc1cc(/C=C/C(=O)c2c(=O)o[nH][n+]2-c2ccccc2)ccc1[O-]`, the TGI [1] was 6.06 µM, the TGI [2] was 8.7 µM and the TGI [3] was 15.2 µM. The TGI [4] was 11 µM, the TGI [5] was 9.41 µM and the TGI [6] was greater than 24.1 µM. For the same compound, the TGI [7] was 15.9 µM, the TGI [8] was 4.29 µM and the TGI [9] was 27.2 µM. For the same compound, the TGI [10] was 6.17 µM.

For `CCOC(=O)c1c(CN2CCNCC2)nc2ccccc2c1-c1ccccc1`, the TGI [1] was 29.3 µM, the TGI [2] was 20.5 µM and the TGI [3] was 27.8 µM. It also gave a TGI [4] of 27.5 µM, a TGI [5] of 25.7 µM and a TGI [6] of 37.9 µM. It also gave a TGI [7] of 29.3 µM, a TGI [8] of 29 µM and a TGI [9] of 35.8 µM. It also gave a TGI [10] of 30.4 µM.

`CCOC(=O)C(=[N+]=[N-])C(=O)Nc1nn2nnnc2c2ccccc12` gave a TGI [1] greater than 100 µM, a TGI [2] greater than 100 µM and a TGI [4] greater than 100 µM. It also gave a TGI [5] greater than 100 µM, a TGI [6] greater than 100 µM and a TGI [7] greater than 100 µM. For the same compound, the TGI [8] was greater than 100 µM, the TGI [9] was greater than 100 µM and the TGI [10] was greater than 100 µM.

In the case of `OCC1OC(n2cnc3cncnc32)C(O)C1O` (stereo not drawn), the TGI [1] is reported as 3.41 µM, the TGI [2] is reported as 2.15 µM and the TGI [3] is reported as 2.98 µM. The TGI [4] was 4.58 µM, the TGI [5] was 2.68 µM and the TGI [6] was 3.33 µM. It also gave a TGI [7] of 4.18 µM, a TGI [8] of 5.42 µM and a TGI [9] of 1.7 µM.

With `NC(=S)N/N=C\c1ccc(OCc2cccc(COc3ccc(/C=N/NC(N)=S)cc3)n2)cc1` the TGI [1] was 38.1 µM, the TGI [2] was greater than 100 µM and the TGI [3] was greater than 100 µM. It also gave a TGI [4] greater than 100 µM, a TGI [5] greater than 100 µM and a TGI [6] greater than 100 µM. It also gave a TGI [7] greater than 100 µM, a TGI [8] greater than 100 µM and a TGI [9] greater than 100 µM. The TGI [10] was greater than 100 µM.

`Cc1ccc(C(C)(C)C[P+](C)(c2ccccc2)c2ccccc2)cc1` showed a TGI [1] of 19.7 µM, a TGI [2] of 50.8 µM and a TGI [3] greater than 100 µM. For the same compound, the TGI [4] was greater than 100 µM, the TGI [5] was greater than 69.2 µM and the TGI [6] was greater than 85.3 µM. It also gave a TGI [7] greater than 100 µM, a TGI [8] of 19.1 µM and a TGI [9] of 18.7 µM.
